Ends that are not written are not given here.
Experiments:
SGBS cells = assay: PIRA antagonist assay: insulin stimulated 14C-glucose uptake; assay type: cell-based; details: SGBS cells (human adipocyte cell line); FIG. 1
Description: In order to identify an insulin receptor binding peptide as an antagonist (PIRA), a candidate peptide can be tested in a glucose uptake assay in e.g. SGBS cells (a human adipocyte cell line) or primary rodent adipocytes. Briefly, the cells are incubated with various concentrations of insulin and subsequently ^14C-glucose uptake is measured. To test a peptide for antagonist properties, a submaximally stimulating concentration of insulin (e.g., resulting in half maximal insulin response) is added and also a dilution series of the peptide to be tested. If the peptide is a PIRA, the insulin induced response is reduced to or below the baseline response with increasing concentration of PIRA and the potency of the PIRA can be estimated from the concentration of PIRA necessary to observe the reduction in response.

insulin receptor = insulin receptor (Homo sapiens, UniProt P06213); assay: Competition binding assay with 125I-labeled cognate ligand, insulin receptor; details: 125I-labeled ligand
Description: (§1) To test the selectivity of PIRA S661 for the insulin receptor versus a related receptor, the IGF1 receptor, competition binding assays were carried out using both receptors and their cognate ligands in ^125I-labeled form.

IGF1 receptor = IGF1 receptor (Homo sapiens, UniProt P08069); assay: Competition binding assay with 125I-labeled cognate ligand, IGF1 receptor; details: 125I-labeled ligand, affinity too low to be measured
Description: as §1

Zucker Obese rats [1] = assay: Glucose profile after i.v. S661 at different doses followed by i.p. human insulin; assay type: in vivo, rat
Description: FIG. 2. Glucose profile in Zucker obese (ZO) male rats after intravenous (i.v.) administration of different doses of peptidic insulin receptor antagonist S661, followed by intraperitoneal (i.p.) administration of human insulin.
Nine groups of 5 or 6 male, 16 week old Zucker Obese rats (Charles River) with an average weight of about 580 gram were kept on ad lib Purina 5008 and ad lib drinking water and fasted overnight for the experiment. The glucose level was tested at 20 minutes and 10 minutes prior to administration of the PIRA designated S661 (described above) Intravenous (i.v.) administration of different doses of S661 in PBS or vehicle was followed by (10 minutes after administration of S661) intraperitoneal (i.p.) administration of different amounts of human insulin in PBS or vehicle. Blood glucose levels were measured at 10, 20, 30, 40, 60, 80, 120, and 180 minutes after injection of insulin.

Zucker Obese rats [2] = assay: Glucose profile after i.v. S661 followed after different times by i.p. human insulin; assay type: in vivo, rat; details: 30 nmol/kg S661 i.v. at various times before 30 nmol/kg human insulin i.p., FIG. 3
Description: FIG. 3. Glucose profile in ZO rats after i.v. administration of Insulin Receptor Antagonist, S661, followed after different times by i.p. administration of human insulin.
Eight groups of 5 to 7 male, 15 week old Zucker Obese rats (Charles River) with an average weight of about 550 gram were kept on ad lib Purina 5008 and ad lib drinking water and fasted overnight for the experiment. PIRA S661 in PBS was administered i.v. at 30 nmol/kg at various times before the i.p. administration of 30 nmol/kg human insulin in PBS.

[3] = 3 nmol/kg S661 i.v., 30 nmol/kg insulin i.p., Zucker Obese rats

GSLDESFYDWFERQLGGGSGGSSLEEEWAQIQCEVWGRGCPSY-amide (GSLDESFYDWFERQLGGGSGGSSLEEEWAQIQCEVWGRGCPSY-NH2; cysteine pairing not given here) [S661, peptidic insulin receptor antagonist]
effect on submaximally insulin stimulated glucose uptake (SGBS cells): inhibition of submaximally insulin stimulated glucose uptake | affinity for the insulin receptor relative to human insulin (insulin receptor): 48 % of that of human insulin | affinity for the IGF1 receptor relative to IGF1 (IGF1 receptor): at least 200.000 fold lower than that of IGF1 | glucose levels as compared to control (Zucker Obese rats [1]; [3]): slightly higher | glucose levels as compared to insulin alone (Zucker Obese rats [1]; [3]): significantly higher levels | blood glucose levels versus insulin alone or only vehicle (Zucker Obese rats [1]; male Zucker Obese rats, fasted, S661 i.v. 10 minutes before i.p. human insulin, FIG. 2): significantly higher | time after administration at which still an effective antagonist (blood glucose) (Zucker Obese rats [2]): ≥ 6 h
